Assay [1] concerns the target ERK2 (Homo sapiens, UniProt P28482). Briefly: Kinase assay (Caliper, FAM-labeled peptide), ERK2. Type of assay: biochemical. As for the experimental part:
(§1) The compound was diluted to the desired concentration with DMSO, transferred 100 μL to a 96-well plate, and performed a gradient dilution 10 μL of compound from each well was taken and mixed with 90 μL of kinase buffer, and then transferred 5 μL from each well to a 384-well plate. Kinase and FAM-labeled peptide and ATP were added to 1× kinase alkaline buffer to obtain 2.5× enzyme solution and 2.5× peptide solution, 10 μL of 2.5× enzyme solution was added to the 384-well assay plate. After incubating for 10 minutes at room temperature, 10 μL of 2.5× peptide solution was added to the 384-well plate. After reacting for a specific time at […], 25 μL of termination buffer was added to stop reaction. After reading the collected data on Caliper, the data was converted to inhibition percentage. Inhibition percentage=(maximum value−conversion value)/(maximum value−minimum value)*100.
(§2) The “maximum” is the DMSO control, the “minimum” indicates the low control.
(§3) Graphpad Prism software was used to perform curve fitting and obtain IC50 value.

Assay [2] concerns the target ERK1 (Homo sapiens, UniProt P27361). The assay can be described thus: Kinase assay (Caliper, FAM-labeled peptide), ERK1. Type of assay: biochemical. The protocol: as §1, §2, §3

Chain of ERK2 (P28482 whole entry): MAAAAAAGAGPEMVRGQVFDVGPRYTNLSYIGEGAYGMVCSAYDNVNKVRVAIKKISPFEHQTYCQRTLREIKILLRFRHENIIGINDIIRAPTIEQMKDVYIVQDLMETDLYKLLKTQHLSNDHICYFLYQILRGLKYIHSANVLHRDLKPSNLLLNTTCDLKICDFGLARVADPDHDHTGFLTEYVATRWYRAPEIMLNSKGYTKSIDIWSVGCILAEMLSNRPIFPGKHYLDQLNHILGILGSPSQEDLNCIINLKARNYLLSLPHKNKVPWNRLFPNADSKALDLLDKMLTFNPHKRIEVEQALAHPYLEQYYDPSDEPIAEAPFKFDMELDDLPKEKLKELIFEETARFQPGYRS
Chain of ERK1 (P27361 whole entry): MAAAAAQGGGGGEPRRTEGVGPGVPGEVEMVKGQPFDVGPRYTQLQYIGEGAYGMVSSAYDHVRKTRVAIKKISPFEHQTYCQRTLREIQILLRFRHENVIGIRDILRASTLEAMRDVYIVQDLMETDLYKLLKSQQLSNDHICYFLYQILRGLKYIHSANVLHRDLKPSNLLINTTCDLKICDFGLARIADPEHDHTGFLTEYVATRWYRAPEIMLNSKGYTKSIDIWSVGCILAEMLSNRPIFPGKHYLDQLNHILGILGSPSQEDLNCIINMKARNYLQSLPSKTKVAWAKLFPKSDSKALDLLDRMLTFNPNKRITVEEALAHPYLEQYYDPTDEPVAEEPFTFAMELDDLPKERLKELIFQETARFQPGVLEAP

As a reminder, the IC50 is the concentration that gives 50% inhibition. High values mean weaker potency in that assay, low ones greater potency in that assay. Regarding `Cc1cnc(Nc2cccc3c2OCCO3)nc1-c1cc2n(c1)CCN(Cc1cc(F)ccc1CO)C2=O` [Example 135, 7-(2-((2,3-dihydrobenzo[b][1,4]dioxane-5-yl)amino)-5-methylpyrimidin-4-yl)-2-(5-fluoro-2-(hydroxymethyl)benzyl)-3,4-dihydropyrrolo[1,2-a] pyrazine-1(2H)-one], the IC50 turned out to be 0.7 nM in assay [1] and 1.6 nM in assay [2].

Consider `COC[C@H]1Cn2cc(-c3cc(NCC(C)(C)O)ncc3Cl)cc2C(=O)N1Cc1cc(F)ccc1CO` [Example 65, (R)-7-(5-chloro-2-((2-hydroxy-2-methylpropyl)amino)pyridine-4-yl)-2-(5-fluoro-2-(hydroxymethyl)benzyl)-3-(methoxymethyl)-3,4-dihydropyrrolo[1,2-a] pyrazine-1(2H)-one], for which the half-maximal inhibitory concentration (IC50) in assay [1] turned out to be 1.6 nM; in assay [2], 0.97 nM.

`O=C1c2cc(-c3cc(NC4COC4)ncc3Cl)cn2CCN1Cc1cc(F)ccc1CO` [Example 30, 7-(5-Chloro-2-(oxetan-3-ylamino)pyridin-4-yl)-2-(5-fluoro-2-(hydroxymethyl)benzyl)-3,4-dihydropyrrolo[1,2-a]pyrazine-1(2H)-one]: the IC50 in assay [1] turned out to be 0.2 nM; in assay [2], 0.31 nM.

Turning to `COC[C@H]1Cn2cc(-c3cc(Nc4c(C)noc4C)ncc3Cl)cc2C(=O)N1Cc1cc(F)ccc1CO` [Example 81, (R)-7-(5-chloro-2-((3,5-dimethyl-isoxazole-4-yl)amino)pyridine-4-yl)-2-(5-fluoro-2-(hydroxymethyl)benzyl)-3-(methoxymethyl)-3,4-dihydropyrrolo[1,2-a] pyrazine-1(2H)-one], the IC50 came to 1.5 nM in assay [1] and 1.1 nM in assay [2].

As to `Cc1cnc(Nc2ccc(OC(C)C)nc2)nc1-c1cc2n(c1)CCN(Cc1cc(F)ccc1CO)C2=O` [Example 159, 2-(5-fluoro-2-(hydroxymethyl)benzyl)-7-(2-((6-isopropoxypyridin-3-yl)amino) 5-methylpyrimidin-4-yl)-3,4-dihydropyrrolo[1,2-a] pyrazine-1(2H)-one], the IC50 in assay [1] came to 1.7 nM; in assay [2], 1.9 nM.

As to `Cc1cnc(Nc2cccc3c2OCO3)nc1-c1cc2n(c1)CCN(Cc1cc(F)ccc1CO)C2=O` [Example 133, 7-(2-(benzo[D][1,3]dioxocyclopentene-4-ylamino)-5-methylpyrimidin-4-yl)-2-(5-fluoro-2-(hydroxymethyl)benzyl)-3,4-dihydropyrrolo[1,2-a] pyrazine-1(2H)-one], the IC50 in assay [1] and in assay [2] was 0.7 nM throughout.

For the molecule `COC[C@H]1Cn2cc(-c3cc(NC(C)=O)ncc3Cl)cc2C(=O)N1Cc1cc(F)ccc1CO` [Example 112, (R)-N-(5-chloro-4-(2-(5-fluoro-2-(hydroxymethyl)benzyl)-3-(methoxymethyl)-1-oxo-1,2,3,4-tetrahydropyrrolo [1,2-a]pyrazin-7-yl)pyridine-2-yl) acetamide], the values for the IC50 in assay [1] and in assay [2] were 1 nM and 0.4 nM, respectively.

Consider `CCc1ccccc1Nc1ncc(C)c(-c2cc3n(c2)CCN(Cc2cc(F)ccc2CO)C3=O)n1` [Example 132, 7-(2-((2-Ethylphenyl)amino)-5-methylpyrimidin-4-yl)-2-(5-fluoro-2-(hydroxymethyl)benzyl)-3,4-dihydropyrrolo[1,2-a] pyrazine-1(2H)-one], for which the IC50 in assay [1] was found to be 0.9 nM; in assay [2], 0.8 nM.

Consider `COCC1Cn2cc(-c3cc(NC4CCN(C(C)C)CC4)ncc3Cl)cc2C(=O)N1Cc1cc(F)ccc1CO` (stereo not shown) [Example 73, 7-(5-chloro-2-((1-isopropylpiperidin-4-yl)amino)pyridine-4-yl)-2-(5-fluoro-2-(hydroxymethyl)benzyl)-3-(methoxymethyl)-3,4-dihydropyrrolo[1,2-a] pyrazine-1(2H)-one], for which the IC50 in assay [1] came to 0.9 nM; in assay [2] it was 3.1 nM.

`Cc1cnc(NC2COC2)nc1-c1c[nH]c(C(=O)NCc2cc(F)ccc2CO)c1` [Example 122, N-(5-fluoro-2-(hydroxymethyl)benzyl)-4-(5-methyl-2-(oxacyclobutane-3-ylamino)pyrimidin-4-yl)-1h-pyrrole-2-formamide]: the IC50 in assay [1] turned out to be 0.71 nM; in assay [2], 0.65 nM.

On to `Cc1cnc(NC(C)C)nc1-c1cc2n(c1)CCN(Cc1cc(F)ccc1CO)C2=O` [Example 123, 2-(5-fluoro-2-(hydroxymethyl)benzyl)-7-(2-(isopropylamino)-5-methylpyrimidin-4-yl)-3,4-dihydropyrrolo[1,2-a] pyrazine-1(2H)-one], for which the IC50 in assay [1] amounted to 0.44 nM; in assay [2], 0.53 nM.

On to `COC[C@H]1Cn2cc(-c3ccnc(NC(C)C)n3)cc2C(=O)N1Cc1cc(F)ccc1CO` [Example 127, (R)-2-(5-fluoro-2-(hydroxymethyl)benzyl)-7-(2-(isopropylamino)pyrimidin-4-yl)-3-(methoxymethyl)-3.4-dihydropyrrolo[1,2-a] pyrazine-1(2H)-one], for which the IC50 turned out to be 0.35 nM in assay [1] and 1.6 nM in assay [2].

Regarding `COC(=O)C1Cn2cc(-c3cc(NC(C)C)ncc3Cl)cc2C(=O)N1Cc1cc(F)ccc1CO` (stereo not shown) [Example 57, Methyl 7-(5-chloro-2-(isopropylamino)pyridin-4-yl)-2-(5-fluoro-2-(hydroxymethyl)benzyl)-1-oxo-1,2,3,4-tetrahydropyrrolo [1,2-a]pyrazine-3-carboxylic acid ethyl ester], the IC50 in assay [1] amounted to 0.5 nM; in assay [2] it was 0.9 nM.

Take `O=C1c2cc(-c3cc(NCC(F)(F)F)ncc3Cl)cn2CCN1Cc1cc(F)ccc1CO` [Example 124, 7-(5-chloro-2-((2,2,2-trifluoroethyl)amino)pyridine-4-yl)-2-(5-fluoro-2-(hydroxymethyl)benzyl)-3,4-dihydropyrrolo[1,2-a] pyrazine-1(2H)-one]: the IC50 came to 0.98 nM in assay [1] and 0.79 nM in assay [2].

As to `CCNc1ncc(Cl)c(-c2cc3n(c2)C[C@H](COC)N(Cc2cc(F)ccc2CO)C3=O)n1` [Example 131, (R)-7-(5-chloro-2-(ethylamino)pyrimidin-4-yl)-2-(5-fluoro-2-(hydroxymethyl)benzyl)-3-(methoxymethyl)-3,4-dihydropyrrolo[1,2-a] pyrazine-1(2H)-one], the IC50 in assay [1] stood at 1.4 nM; in assay [2], 0.83 nM.

With `COC[C@H]1Cn2cc(-c3cc(NC4COC(C)(C)C4)ncc3Cl)cc2C(=O)N1Cc1cc(F)ccc1CO` (stereo partly drawn) [Example 79, (3R)-7-(5-chloro-2-((5,5-dimethyltetrahydrofuran-3-yl)amino)pyridine-4-yl)-2-(5-fluoro-2-(hydroxymethyl)benzyl)-3-(methoxymethyl)-3,4-dihydropyrrolo[1,2-a] pyrazine-1(2H)-one], the results for the IC50 in assay [1] and in assay [2] were 0.39 nM and 0.36 nM, respectively.

In the case of `Cc1cnc(NC(C)CO)nc1-c1cc2n(c1)CCN(Cc1cc(F)ccc1CO)C2=O` (stereo not shown) [Example 121, 2-(5-fluoro-2-(hydroxymethyl)benzyl)-7-(2-((1-hydroxypropyl-2-yl)amino)-5-methylpyrimidin-4-yl)-3,4-dihydropyrrolo[1,2-a] pyrazine-1(2H)-one], the IC50 in assay [1] and in assay [2] was 0.2 nM throughout.

Turning to `CC(C)Nc1cc(-c2cc3n(c2)CCN(Cc2ccccc2CO)C3=O)c(Cl)cn1` [Example 14, 7-(5-chloro-2-(isopropylamino)pyridin-4-yl)-2-(2-(hydroxymethyl)benzyl)-3,4-dihydropyrrolo[1,2-a] pyrazine-1(2H)-one], the values for the IC50 in assay [1] and in assay [2] were 0.6 nM and 0.7 nM, respectively.

For `CC(C)Nc1cc(-c2cc3n(c2)CCN(Cc2cc(F)c(F)cc2CO)C3=O)c(Cl)cn1` [Example 19, 7-(5-chloro-2-(isopropylamino)pyridine-4-yl)-2-(4,5-difluoro-2-(hydroxymethyl)benzyl)-3,4-dihydropyrrolo[1,2-a]pyrazine-1(2H)-one], the IC50 was 0.6 nM in assay [1] and 0.3 nM in assay [2].

Consider `Cc1cnc(Nc2cccc3cnn(C)c23)nc1-c1cc2n(c1)CCN(Cc1cc(F)ccc1CO)C2=O` [Example 140, 2-(5-fluoro-2-(hydroxymethyl)benzyl)-7-(5-methyl-2-((1-methyl-1h-indazole-7-yl)amino)pyrimidin-4-yl)-3,4-dihydropylrolo[1,2-a] pyrazine-1(2H)-one], for which the IC50 in assay [1] was 1.1 nM; in assay [2] it was 1.3 nM.

Regarding `COC[C@H]1Cn2cc(-c3cc(NC4CCCC4)ncc3Cl)cc2C(=O)N1Cc1cc(F)ccc1CO` [Example 77, (R)-7-(5-chloro-2-(cyclopentylamino)pyridin-4-yl)-2-(5-fluoro-2-(hydroxymethyl)benzyl)-3-(methoxymethyl)-3,4-dihydropyrrolo[1,2-a] pyrazine-1(2H)-one], the IC50 was 1.5 nM in assay [1] and 1.1 nM in assay [2].

`Cc1cnc(Nc2ccccc2)nc1-c1cc2n(c1)CCN(Cc1cc(F)ccc1CO)C2=O` [Example 137, 2-(5-fluoro-2-(hydroxymethyl)benzyl)-7-(5-methyl-2-(phenylamino)pyrimidin-4-yl)-3,4-dihydropyrrolo[1,2-a] pyrazine-1(2H)-one]: the results for the IC50 in assay [1] and in assay [2] were 0.6 nM and 2.7 nM, respectively.

`COC[C@H]1Cn2cc(-c3ccnc(NC4CCOCC4)c3)cc2C(=O)N1Cc1cc(F)ccc1CO` [Example 67, (R)-2-(5-fluoro-2-(hydroxymethyl)benzyl)-3-(methoxymethyl)-7-(2-((tetrahydro-2h-pyran-4-yl)amino)pyridine-4-yl)-3,4-dihydropyrrolo [1,2-a]pyrazine-1(2H)-one]: the figures for the IC50 in assay [1] and in assay [2] were 1.2 nM and 1.6 nM, respectively.
